Data from US10100058B2, “Fused heterocyclic compounds as CaM kinase inhibitors” (Gilead Sciences, Inc., priority 2016, dated 2018).

Molecular target: recombinant CaMKIIδ (Homo sapiens (Human), UniProt Q13557)
Assay: CaMKIIδ biochemical assay (HTRF)
Conditions: 10 pM CaMKIIδ, 110 nM calmodulin, 12 μM ATP, 1 hour; read-out: CAMKIID-HTRF-384V2 (IC50 - nM)
Description: CaMKIIδ Biochemical Assay
The biochemical activity of recombinant CaMKIIδ was measured by monitoring the phosphorylation of a target peptide using Homogenous Time Resolved Fluorescence (HTRF) technology from CisBio Bioassays.

IC50 [nM] | SMILES
7.03 | CCN(CC)C(C)CNC(=O)c1ccnc(-c2cnn3ccc(-c4ccccc4)nc23)c1 (stereo not drawn) [Example 37, N-(2-(diethylamino)propyl)-2-(5-phenylpyrazolo[1,5-a]pyrimidin-3-yl)isonicotinamide]
2.08 | CCN(CC)[C@@H](C)CNC(=O)c1ccnc(-c2cnn3ccc(-c4ccccc4)nc23)c1 [Example 38, (S)—N-(2-(diethylamino)propyl)-2-(5-phenylpyrazolo[1,5-a]pyrimidin-3-yl)isonicotinamide]
137 | CN(C)CCNC(=O)c1ccnc(-c2cnn3ccc(-c4ccccc4)nc23)c1 [Example 39, N-(2-(dimethylamino)ethyl)-2-(5-phenylpyrazolo[1,5-a]pyrimidin-3-yl)isonicotinamide]
119 | CC1(C)CNC1CNC(=O)c1ccnc(-c2cnn3ccc(-c4ccccc4)nc23)c1 (stereo not drawn) [Example 41, N-((3,3-dimethylazetidin-2-yl)methyl)-2-(5-phenylpyrazolo[1,5-a]pyrimidin-3-yl)isonicotinamide]
14.4 | CCN[C@@H](C)CNC(=O)c1ccnc(-c2cnn3ccc(-c4ccccc4)nc23)c1 [Example 42, (S)—N-(2-(ethylamino)propyl)-2-(5-phenylpyrazolo[1,5-a]pyrimidin-3-yl)isonicotinamide]
27.7 | CC[C@]1(CNC(=O)c2ccnc(-c3cnn4ccc(-c5ccccc5)nc34)c2)CCCN1 [Example 43, (R)—N-((2-ethylpyrrolidin-2-yl)methyl)-2-(5-phenylpyrazolo[1,5-a]pyrimidin-3-yl)isonicotinamide]
43.1 | C[C@H](N)CNC(=O)c1ccnc(-c2cnn3ccc(-c4ccccc4)nc23)c1 [Example 44, (S)—N-(2-aminopropyl)-2-(5-phenylpyrazolo[1,5-a]pyrimidin-3-yl)isonicotinamide]
77.4 | CCC(C)N[C@@H](C)CNC(=O)c1ccnc(-c2cnn3ccc(-c4ccccc4)nc23)c1 (stereo partly drawn) [Example 45, N-((2S)-2-(sec-butylamino)propyl)-2-(5-phenylpyrazolo[1,5-a]pyrimidin-3-yl)isonicotinamide]
23.7 | CCC(N)CNC(=O)c1ccnc(-c2cnn3ccc(-c4ccccc4)nc23)c1 (stereo not drawn) [Example 46, N-(2-aminobutyl)-2-(5-phenylpyrazolo[1,5-a]pyrimidin-3-yl)isonicotinamide]
35.3 | CC(C)C(N)CNC(=O)c1ccnc(-c2cnn3ccc(-c4ccccc4)nc23)c1 (stereo not drawn) [Example 47, N-(2-amino-3-methylbutyl)-2-(5-phenylpyrazolo[1,5-a]pyrimidin-3-yl)isonicotinamide]
25.7 | CCCC(N)CNC(=O)c1ccnc(-c2cnn3ccc(-c4ccccc4)nc23)c1 (stereo not drawn) [Example 48, N-(2-aminopentyl)-2-(5-phenylpyrazolo[1,5-a]pyrimidin-3-yl)isonicotinamide]
391 | C[C@@H](CNC(=O)c1ccnc(-c2cnn3ccc(-c4ccccc4)nc23)c1)NCc1ncccn1 [Example 49, (S)-2-(5-phenylpyrazolo[1,5-a]pyrimidin-3-yl)-N-(2-((pyrimidin-2-ylmethyl)amino)propyl) isonicotinamide]
8.52 | CCC(CNC(=O)c1ccnc(-c2cnn3ccc(-c4ccccc4)nc23)c1)NCC1CC1 (stereo not drawn) [Example 50, N-(2-((cyclopropylmethyl)amino)butyl)-2-(5-phenylpyrazolo[1,5-a]pyrimidin-3-yl)isonicotinamide]
9.61 | CCCNC(CC)CNC(=O)c1ccnc(-c2cnn3ccc(-c4ccccc4)nc23)c1 (stereo not drawn) [Example 51, 2-(5-phenylpyrazolo[1,5-a]pyrimidin-3-yl)-N-(2-(propylamino)butyl)isonicotinamide]
4.98 | CC(C)C(CNC(=O)c1ccnc(-c2cnn3ccc(-c4ccccc4)nc23)c1)NCC1CC1 (stereo not drawn) [Example 52, N-(2-((cyclopropylmethyl)amino)-3-methylbutyl)-2-(5-phenylpyrazolo[1,5-a]pyrimidin-3-yl)isonicotinamide]
4.79 | CCCNC(CNC(=O)c1ccnc(-c2cnn3ccc(-c4ccccc4)nc23)c1)C(C)C (stereo not drawn) [Example 53, N-(3-methyl-2-(propylamino)butyl)-2-(5-phenylpyrazolo[1,5-a]pyrimidin-3-yl)isonicotinamide]
13.4 | CCNC(CC)CNC(=O)c1ccnc(-c2cnn3ccc(-c4ccccc4)nc23)c1 (stereo not drawn) [Example 54, N-(2-(ethylamino)butyl)-2-(5-phenylpyrazolo[1,5-a]pyrimidin-3-yl)isonicotinamide]
12 | CCNC(CNC(=O)c1ccnc(-c2cnn3ccc(-c4ccccc4)nc23)c1)C(C)C (stereo not drawn) [Example 55, N-(2-(ethylamino)-3-methylbutyl)-2-(5-phenylpyrazolo[1,5-a]pyrimidin-3-yl)isonicotinamide]

IC50 [nM] | SMILES
26.5 | N[C@@H](CO)CNC(=O)c1ccnc(-c2cnn3ccc(-c4ccccc4)nc23)c1 [Example 57, (R)—N-(2-amino-3-hydroxypropyl)-2-(5-phenylpyrazolo[1,5-a]pyrimidin-3-yl)isonicotinamide]
5.34 | CCN[C@@H](CO)CNC(=O)c1ccnc(-c2cnn3ccc(-c4ccccc4)nc23)c1 [Example 59, (R)—N-(2-(ethylamino)-3-hydroxypropyl)-2-(5-phenylpyrazolo[1,5-a]pyrimidin-3-yl)isonicotinamide]
2.35 | CCCC(CNC(=O)c1ccnc(-c2cnn3ccc(-c4ccccc4)nc23)c1)N(CC)CC (stereo not drawn) [Example 60, N-(2-(diethylamino)pentyl)-2-(5-phenylpyrazolo[1,5-a]pyrimidin-3-yl)isonicotinamide]
3.6 | CCN(CC)C(CNC(=O)c1ccnc(-c2cnn3ccc(-c4ccccc4)nc23)c1)C(C)C (stereo not drawn) [Example 61, N-(2-(diethylamino)-3-methylbutyl)-2-(5-phenylpyrazolo[1,5-a]pyrimidin-3-yl)isonicotinamide]
216 | CC(CN)NC(=O)c1ccnc(-c2cnn3ccc(-c4ccccc4)nc23)c1 (stereo not drawn) [Example 62, N-(1-aminopropan-2-yl)-2-(5-phenylpyrazolo[1,5-a]pyrimidin-3-yl)isonicotinamide]
12.6 | CCN(CCN)C(=O)c1ccnc(-c2cnn3ccc(-c4ccccc4)nc23)c1 [Example 65, N-(2-aminoethyl)-N-ethyl-2-(5-phenylpyrazolo[1,5-a]pyrimidin-3-yl)isonicotinamide]
205 | N[C@H](CNC(=O)c1ccnc(-c2cnn3ccc(-c4ccccc4)nc23)c1)COc1ncccn1 [Example 66, (R)—N-(2-amino-3-(pyrimidin-2-yloxy)propyl)-2-(5-phenylpyrazolo[1,5-a]pyrimidin-3-yl)isonicotinamide]
102 | CCNC(C)(C)CNC(=O)c1ccnc(-c2cnn3ccc(-c4ccccc4)nc23)c1 [Example 67, N-(2-(ethylamino)-2-methylpropyl)-2-(5-phenylpyrazolo[1,5-a]pyrimidin-3-yl)isonicotinamide]
26.3 | O=C(c1ccnc(-c2cnn3ccc(-c4ccccc4)nc23)c1)N1CCCCC12CCCNC2 (stereo not drawn) [Example 68, (2-(5-phenylpyrazolo[1,5-a]pyrimidin-3-yl)pyridin-4-yl)(1,8-diazaspiro[5.5]undecan-1-yl)methanone]
91.1 | CCN[C@H](CNC(=O)c1ccnc(-c2cnn3ccc(-c4ccccc4)nc23)c1)COc1ncccn1 [Example 69, (R)—N-(2-(ethylamino)-3-(pyrimidin-2-yloxy)propyl)-2-(5-phenylpyrazolo[1,5-a]pyrimidin-3-yl)isonicotinamide]
30.1 | CCN(CC)[C@H](CNC(=O)c1ccnc(-c2cnn3ccc(-c4ccccc4)nc23)c1)COc1ncccn1 [Example 70, (R)—N-(2-(diethylamino)-3-(pyrimidin-2-yloxy)propyl)-2-(5-phenylpyrazolo[1,5-a]pyrimidin-3-yl)isonicotinamide]
31.9 | CC(C)NC(CNC(=O)c1ccnc(-c2cnn3ccc(-c4ccccc4)nc23)c1)C(C)C (stereo not drawn) [Example 73, N-(2-(isopropylamino)-3-methylbutyl)-2-(5-phenylpyrazolo[1,5-a]pyrimidin-3-yl)isonicotinamide]
34.2 | CCN[C@H](C)CNC(=O)c1ccnc(-c2cnn3ccc(-c4ccccc4)nc23)c1 [Example 74, (R)—N-(2-(ethylamino)propyl)-2-(5-phenylpyrazolo[1,5-a]pyrimidin-3-yl)isonicotinamide]
39.3 | CC[C@@]1(CNC(=O)c2ccnc(-c3cnn4ccc(-c5ccccc5)nc34)c2)CCCN1 [Example 75, (S)—N-((2-ethylpyrrolidin-2-yl)methyl)-2-(5-phenylpyrazolo[1,5-a]pyrimidin-3-yl)isonicotinamide]
2.85 | NC[C@H]1CCCN1C(=O)c1ccnc(-c2cnn3ccc(-c4cccs4)nc23)c1 [Example 79, (R)-(2-(aminomethyl)pyrrolidin-1-yl)(2-(5-(thiophen-2-yl)pyrazolo[1,5-a]pyrimidin-3-yl)pyridin-4-yl)methanone]
18.8 | N[C@H]1CCCN(C(=O)c2ccnc(-c3cnn4ccc(-c5cccs5)nc34)c2)C1 [Example 83, (S)-(3-aminopiperidin-1-yl)(2-(5-(thiophen-2-yl)pyrazolo[1,5-a]pyrimidin-3-yl)pyridin-4-yl)methanone]
17.5 | C[C@@H]1CNCCN1C(=O)c1ccnc(-c2cnn3ccc(-c4cccs4)nc23)c1 [Example 84, (R)-(2-methylpiperazin-1-yl)(2-(5-(thiophen-2-yl)pyrazolo[1,5-a]pyrimidin-3-yl)pyridin-4-yl)methanone]

SMILES | IC50 [nM]
O=C(c1ccnc(-c2cnn3ccc(-c4cccs4)nc23)c1)N1CC2CCC(C1)NC2 (stereo not drawn) [Example 76] | 3.47
O=C(c1ccnc(-c2cnn3ccc(-c4cccs4)nc23)c1)N1CC2CCC[C@@H](C1)NC2 [Example 77, ((1S)-3,9-diazabicyclo[3.3.2]decan-3-yl)(2-(5-(thiophen-2-yl)pyrazolo[1,5-a]pyrimidin-3-yl)pyridin-4-yl)methanone] | 2.7
O=C(c1ccnc(-c2cnn3ccc(-c4cccs4)nc23)c1)N1CC2CNC(COC2)C1 (stereo not drawn) [Example 81] | 7.33
O=C(c1ccnc(-c2cnn3ccc(-c4cccs4)nc23)c1)N1C2CCNCC1CC2 (stereo not drawn) [Example 82] | 6.14
